# Data reported in the supplement of paper PMC5844555.
# Key:
# Assay in all cases: 3' UTR reporter interaction score (median-centred robust z-score of log2 firefly/Renilla activity); higher = less repression of the 3' UTR reporter
# Details in all cases: HEK293T; 48 h
# BRCA2 = tested on: BRCA2
# Summary of the method: (§1)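 In at least two independent screens, HEK293T cells in 96-well plates (10,000/well) were co-transfected with DharmaFECT Duo using 100 ng firefly luc2P reporter with the gene's 3' UTR, 20 ng Renilla pRL-TK control and 2.5 pmol miRNA mimic, and dual-luciferase activities were read at 48 h. The interaction score, averaged across screens, is the per-plate robust z-score (median, median absolute deviation) of the log firefly/Renilla ratio, median-centred per miRNA, with more negative indicating interaction.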
# EZH2 = tested on: EZH2
# Summary of the method: as §1
# FBXW7 = tested on: FBXW7
# Summary of the method: as §1
# HRAS = tested on: HRAS
# Summary of the method: as §1
# MYB = tested on: MYB
# Summary of the method: as §1
# MYCN = tested on: MYCN
# Summary of the method: as §1
# MYC = tested on: MYC
# Summary of the method: as §1
# MYT1L = tested on: MYT1L
# Summary of the method: as §1
# NOTCH1 = tested on: NOTCH1
# Summary of the method: as §1
# PHF6 = tested on: PHF6
# Summary of the method: as §1
# PHOX2B = tested on: PHOX2B
# Summary of the method: as §1
# RB1 = tested on: RB1
# Summary of the method: as §1
# TP53 = tested on: TP53
# Summary of the method: as §1
# ZEB2 = tested on: ZEB2
# Summary of the method: as §1
Sequence,3' UTR reporter interaction score (BRCA2),3' UTR reporter interaction score (EZH2),3' UTR reporter interaction score (FBXW7),3' UTR reporter interaction score (HRAS),3' UTR reporter interaction score (MYB),3' UTR reporter interaction score (MYCN),3' UTR reporter interaction score (MYC),3' UTR reporter interaction score (MYT1L),3' UTR reporter interaction score (NOTCH1),3' UTR reporter interaction score (PHF6),3' UTR reporter interaction score (PHOX2B),3' UTR reporter interaction score (RB1),3' UTR reporter interaction score (TP53),3' UTR reporter interaction score (ZEB2)
AACCAGCACCCCAACUUUGGAC,-0.175,1.33,-7.19,0.0381,-1.09,0.781,0.864,0.0434,-0.388,-2.04,-0.923,-1.29,0.244,1.09
AACCCGUAGAUCCGAACUUGUG,0.951,0.142,-0.349,0.79,0.491,-0.886,0.114,-0.266,-0.555,-0.96,-4.05,0.915,1.86,-1.13
AACCCGUAGAUCCGAUCUUGUG,0.969,-0.241,-0.496,0.465,1.14,0.392,1.06,-0.114,0.552,-0.973,-3.27,-0.24,-0.247,-0.0662
AACGCACUUCCCUUUAGAGUGU,0.843,0.293,0.611,-0.716,-0.0921,0.243,-2.85,1.01,0.0977,-1.36,-0.209,1.02,-0.139,0.153
AACGCGCUUCCCUAUAGAGGG,0.644,1.38,0.0883,-1.1,-0.83,-1.41,-0.143,-0.267,0.382,0.0798,-0.021,0.667,1.12,-0.982
AAGCAGCUGCCUCUGAGGC,-0.823,-1.03,-2.92,-0.819,-1.27,0.924,1.09,-4.53,-0.304,0.632,0.758,0.293,0.187,1.09
AAGCCUGCCCGGCUCCUCGGG,0.422,-0.223,0.255,0.291,0.0778,-0.588,0.642,-0.815,-0.439,-0.0107,0.478,-0.201,-1.82,1.11
AAGCUGCCAGUUGAAGAACUGU,-0.407,-0.11,-0.354,0.475,0.23,-0.291,-0.252,-1.31,1.36,-0.206,0.0996,0.935,-0.365,0.607
AAGGAGCUCACAGUCUAUUGAG,-1.14,-0.897,0.924,0.291,1.45,1.38,-0.238,0.551,-1.13,-0.478,0.65,0.838,-1.32,1.75
AAGUGCUGUCAUAGCUGAGGUC,0.528,-0.608,0.564,0,-0.62,1.22,0.212,-0.819,-0.478,0.918,-0.113,1.65,0.0875,1.38
AAGUGCUUCCUUUUAGAGGGUU,-0.82,-1.25,0.635,-0.113,-0.72,0.896,-0.869,0.457,0.466,1.07,0.633,1.62,-1,0.00821
AAUAAUACAUGGUUGAUCUUU,-0.146,0.433,-0.364,-0.598,0.0772,-0.572,0.609,-0.318,-0.442,1.16,-0.121,-0.0974,-0.77,-1.86
AAUAUUAUACAGUCAACCUCU,-1.63,-0.324,0.854,-0.762,-0.218,1.48,0.0661,0,3.57,-1.02,0.408,-1.29,0.359,0.391
AAUCAUACACGGUUGACCUAUU,-0.246,0.236,0.544,-0.256,0.393,0.277,-0.182,0.0899,-0.221,-0.4,-0.199,-0.342,-0.0204,-1.95
AAUCAUACAGGGACAUCCAGUU,-0.401,1.15,0.98,0.163,0.0607,-0.994,0.273,0.474,-0.77,-0.265,1.38,-0.451,-0.0235,-0.725
AAUCCUUGGAACCUAGGUGUGAGU,0.643,0.207,-0.342,0.739,0.656,0.204,1.33,-4.11,-0.594,0.0671,-0.851,-0.422,-0.232,-0.171
AAUCCUUUGUCCCUGGGUGAGA,0.853,-0.257,0.455,0.171,-0.9,0.972,0.916,-2.16,1.42,-0.0711,-0.304,0.615,-0.735,0.439
AAUGACACGAUCACUCCCGUUGA,-1.49,0.0535,0.139,0.792,-0.032,-0.341,0.235,-0.645,-1.98,-0.214,-0.699,-0.373,0.759,0.878
AAUGGCGCCACUAGGGUUGUGCA,-0.437,-0.534,-0.576,-0.363,0.208,0.439,-0.44,-0.00801,-0.589,0.0523,1.04,-0.957,-0.436,0.407

Sequence,3' UTR reporter interaction score (BRCA2),3' UTR reporter interaction score (EZH2),3' UTR reporter interaction score (FBXW7),3' UTR reporter interaction score (HRAS),3' UTR reporter interaction score (MYB),3' UTR reporter interaction score (MYCN),3' UTR reporter interaction score (MYC),3' UTR reporter interaction score (MYT1L),3' UTR reporter interaction score (NOTCH1),3' UTR reporter interaction score (PHF6),3' UTR reporter interaction score (PHOX2B),3' UTR reporter interaction score (RB1),3' UTR reporter interaction score (TP53),3' UTR reporter interaction score (ZEB2)
AAUUGCACUUUAGCAAUGGUGA,1.07,-0.64,-4.25,-0.0471,-0.332,0.969,0.3,0.317,-0.161,2.86,0.339,1.39,-1.5,-2.8
ACAAAGUGCUUCCCUUUAGAGU,-0.366,-0.0342,0.628,0.332,0.129,-0.183,-0.239,-0.45,0.795,-0.537,1.29,-0.344,-0.415,0.377
ACAAAGUGCUUCCCUUUAGAGUGU,-0.733,-0.507,-0.043,0.36,0.347,-0.406,-0.0807,-0.448,0.486,-0.618,1.18,0.896,-0.281,-0.058
ACAGCAGGCACAGACAGGCAG,-0.408,-1.08,-0.152,-0.306,-0.134,-0.201,-0.0632,-1.17,0.191,1.37,0.072,0.215,-0.292,1.63
ACAGUCUGCUGAGGUUGGAGC,0.137,0.0759,-0.12,-0.732,-0.0786,0.116,-0.486,-0.4,0.0668,0.259,0.189,-1.36,-0.638,1.65
ACAUAGAGGAAAUUCCACGUUU,1.12,0.213,-1.56,-0.449,-0.866,0.704,-0.782,-0.235,0.306,1.27,-1.91,0.821,1.11,-1.25
ACCAUCGACCGUUGAUUGUACC,0.723,0.789,-0.0205,-0.526,0.0907,0.598,-0.128,-2.64,-0.491,1.81,0.0128,-0.388,0.659,0.294
ACCCUAUCAAUAUUGUCUCUGC,-0.211,-0.658,0.326,-0.283,0.329,0.109,0.123,-0.388,-0.0515,0.779,-0.0439,-0.979,-0.169,0.936
ACUAGACUGAAGCUCCUUGAGG,0.363,0.526,-1.12,0.196,0.78,0.903,0.201,0.327,-0.733,-0.216,-2.05,1.2,0.442,-0.765
ACUCAAAACCCUUCAGUGACUU,0.794,0.495,0.994,-0.68,-1.17,-0.913,-0.294,-0.111,0.701,1.5,-0.184,-0.026,1.13,0.456
ACUCAAAAUGGGGGCGCUUUCC,-0.27,0.137,-0.231,0.68,-0.497,-0.623,0.445,0.0549,-0.52,2.12,0.0383,0.824,-0.765,0.347
ACUCCAGCCCCACAGCCUCAGC,-0.443,-0.117,-1.03,0.232,0.784,0.185,-0.755,-0.581,-0.369,-1.69,1.37,0.647,-0.602,-0.519
ACUCCAUUUGUUUUGAUGAUGGA,-0.329,-0.0207,-0.453,-0.269,-0.2,0.165,-0.0596,-0.15,-0.518,0.594,0.953,-0.0878,0.239,0.912
ACUGCAGUGAAGGCACUUGU,0.0527,-0.638,-0.112,0.389,0.157,0.762,0.291,-0.459,0.45,-0.789,-0.6,-0.0483,-0.642,-0.791
ACUGCCCUAAGUGCUCCUUCU,-0.325,0.0537,0.408,-0.229,-0.35,1.21,0.276,0.161,-0.46,-0.374,0.63,-0.147,0.48,-0.687
ACUGGGGGCUUUCGGGCUCUGCGU,0.135,-0.722,0.537,-0.439,0.119,-0.18,-0.444,0.0192,0.864,2.06,-0.685,0.988,0.587,1.01
ACUUACAGACAAGAGCCUUGCUC,0.948,-1.69,1.72,1.57,-2.25,-0.0923,0.117,-1.75,0.216,-1.11,1.47,-0.353,0.219,-0.165
ACUUCACCUGGUCCACUAGCCGU,-0.412,-0.456,-2.1,-0.736,0.743,0.0552,-0.039,1.42,0.897,0.576,-0.0718,1.16,-0.237,0.694
ACUUGGGCACUGAAACAAUGUCC,-0.973,-1.19,-0.0493,-0.00106,-0.103,0.382,0.112,0.0827,-4.15,1.39,0.564,0.0718,-1.34,1.78
